Laboratory results taken from US20100076015A1, “Aminopyridine Derivatives” (VANTIA LIMITED, priority 2008, published 2010).

biological target: T1, Human KLK1 (Homo sapiens, UniProt P06870); assay: Determination of the IC50 for KLK1 (fluorogenic substrate H-DVal-Leu-Arg-AFC); assay type: biochemical; settings: 37° C.
T1 construct: purchased Callbiochem (Calbiochem)
Outline: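 IC50 values reflect residual human KLK1 activity, read as initial rate from optical absorbance change at 410 nm. Incubations ran at 37° C with H-DVal-Leu-Arg-AFC as substrate across a compound concentration series.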

T1 sequence (P06870 25-262): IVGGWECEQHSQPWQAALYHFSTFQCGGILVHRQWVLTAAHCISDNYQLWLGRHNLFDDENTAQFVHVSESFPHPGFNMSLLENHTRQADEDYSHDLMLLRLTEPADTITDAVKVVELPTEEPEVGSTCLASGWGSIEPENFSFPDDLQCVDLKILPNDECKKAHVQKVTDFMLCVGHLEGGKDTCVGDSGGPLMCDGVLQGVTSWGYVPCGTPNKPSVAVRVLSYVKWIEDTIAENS

| IC50 [nM] | SMILES |
| --- | --- |
| 2.6 | CCN(CC)[C@@H](C)C(=O)N[C@@H](Cc1cccc(Cl)c1)C(=O)NCc1ccc(N)nc1 [Example 410, (S)—N-[(S)-1-[(6-Amino-pyridin-3-ylmethyl)-carbamoyl]-2-(3-chloro-phenyl)-ethyl]-2-diethylamino-propionamide] |
| 11.2 | CCC(C)[C@@H](NC)C(=O)N[C@@H](Cc1ccc(F)c(F)c1)C(=O)NCc1ccc(N)nc1 (single isomer, unassigned) [Example 53] |
| 15.5 | CNC(C)(C)C(=O)N[C@@H](Cc1ccc(F)c(F)c1)C(=O)NCc1ccc(N)nc1 [Example 86, N-[(S)-1-[(6-Amino-pyridin-3-ylmethyl)-carbamoyl]-2-(3,4-difluoro-phenyl)-ethyl]-2-methyl-2-methylamino-propionamide] |
| 8.1 | Nc1ccc(CNC(=O)[C@H](Cc2cccc3ccccc23)NC(=O)c2nc3ccccc3[nH]2)cn1 [Example 299, 1H-Benzoimidazole-2-carboxylic acid {(S)-1-[(6-amino-pyridin-3-ylmethyl)-carbamoyl]-2-naphthalen-1-yl-ethyl}-amide] |
| 1.1 | Nc1ccc(CNC(=O)[C@H](Cc2cccc(C(F)(F)F)c2)NC(=O)[C@H](N)Cc2ccc(Cl)cc2)cn1 [Example 70, (R)-2-Amino-N-[(S)-1-[(6-amino-pyridin-3-ylmethyl)-carbamoyl]-2-(3-trifluoromethyl-phenyl)-ethyl]-3-(4-chloro-phenyl)-propionamide] |
| 15 | Nc1ccc(CNC(=O)[C@H](Cc2ccc(F)c(F)c2)NC(=O)[C@H]2CCCN2Cc2ccc(Cl)cc2)cn1 [Example 142, (R)-1-(4-Chloro-benzyl)-pyrrolidine-2-carboxylic acid [(S)-1-[(6-amino-pyridin-3-ylmethyl)-carbamoyl]-2-(3,4-difluoro-phenyl)-ethyl]-amide] |
| 0.66 | Nc1ccc(CNC(=O)[C@H](Cc2ccc(Cl)c(Cl)c2)NC(=O)[C@H]2CCCCN2)cn1 [Example 63, (R)-Piperidine-2-carboxylic acid [(S)-1-[(6-amino-pyridin-3-ylmethyl)-carbamoyl]-2-(3,4-dichloro-phenyl)-ethyl]-amide] |
| 7.6 | CC(C)N1CCC[C@@H]1C(=O)N[C@@H](Cc1ccccc1C(F)(F)F)C(=O)NCc1ccc(N)nc1 [Example 128, (R)-1-Isopropyl-pyrrolidine-2-carboxylic acid [(S)-1-[(6-amino-pyridin-3-ylmethyl)-carbamoyl]-2-(2-trifluoromethyl-phenyl)-ethyl]-amide] |
| 19.5 | CN1CCC[C@@H]1C(=O)N[C@@H](CC1CCCCC1)C(=O)NCc1ccc(N)nc1 [Example 115, (R)-1-Methyl-pyrrolidine-2-carboxylic acid {(S)-1-[(6-amino-pyridin-3-ylmethyl)-carbamoyl]-2-cyclohexyl-ethyl}-amide] |
| 91 | C[C@@H](C(=O)N[C@@H](Cc1ccc(F)c(F)c1)C(=O)NCc1ccc(N)nc1)N(C)CC1CCCCC1 [Example 343, (S)—N-[(S)-1-[(6-Amino-pyridin-3-ylmethyl)-carbamoyl]-2-(3,4-difluoro-phenyl)-ethyl]-2-(cyclohexylmethyl-methyl-amino)-propionamide] |
| 63.3 | CCC(C)[C@H](C(=O)N[C@@H](Cc1ccc(Cl)c(Cl)c1)C(=O)NCc1ccc(N)nc1)N(C)C(C)C (stereo partly drawn) [Example 155, (R)-2-(Isopropyl-methyl-amino)-3-methyl-pentanoic acid [(S)-1-[(6-amino-pyridin-3-ylmethyl)-carbamoyl]-2-(3,4-dichloro-phenyl)-ethyl]-amide] |
| 4.9 | C[C@@H](C(=O)N[C@@H](Cc1ccc(F)cc1)C(=O)NCc1ccc(N)nc1)N1CCCCC1 [Example 375, (S)—N-[(S)-1-[(6-Amino-pyridin-3-ylmethyl)-carbamoyl]-2-(4-fluoro-phenyl)-ethyl]-2-piperidin-1-yl-propionamide] |
| 22 | Nc1ccc(CNC(=O)[C@H](Cc2cccc(C(F)(F)F)c2)NC(=O)c2cc3ccccc3[nH]2)cn1 [Example 307, 1H-Indole-2-carboxylic acid [(S)-1-[(6-amino-pyridin-3-ylmethyl)-carbamoyl]-2-(3-trifluoromethyl-phenyl)-ethyl]-amide] |
| 1.7 | CCC(C)[C@H](C(=O)N[C@@H](Cc1ccc(Cl)c(Cl)c1)C(=O)NCc1ccc(N)nc1)N(C)S(C)(=O)=O (stereo partly drawn) [Example 8, (R)-2-(Methanesulfonyl-methyl-amino)-3-methyl-pentanoic acid [(S)-1-[(6-amino-pyridin-3-ylmethyl)-carbamoyl]-2-(3,4-dichloro-phenyl)-ethyl]-amide] |
| 24.4 | Cc1ccccc1C[C@H](NC(=O)[C@H]1CCCN1C)C(=O)NCc1ccc(N)nc1 [Example 104, (R)-1-Methyl-pyrrolidine-2-carboxylic acid {(S)-1-[(6-amino-pyridin-3-ylmethyl)-carbamoyl]-2-o-tolyl-ethyl}-amide] |
| 49.6 | CC(C)N1CCCC[C@@H]1C(=O)N[C@@H](Cc1ccc(F)cc1)C(=O)NCc1ccc(N)nc1 [Example 147, (R)-1-Isopropyl-piperidine-2-carboxylic acid [(S)-1-[(6-amino-pyridin-3-ylmethyl)-carbamoyl]-2-(4-fluoro-phenyl)-ethyl]-amide] |

| IC50 [nM] | SMILES |
| --- | --- |
| 5.7 | Cc1cc[nH]c1C(=O)N[C@@H](Cc1cccc(Cl)c1)C(=O)NCc1ccc(N)nc1 [Example 266, 3-Methyl-1H-pyrrole-2-carboxylic acid [(S)-1-[(6-amino-pyridin-3-ylmethyl)-carbamoyl]-2-(3-chloro-phenyl)-ethyl]-amide] |
| 50.5 | CNCC(=O)N[C@@H](C(=O)NCc1ccc(N)nc1)C(C1CCCCC1)C1CCCCC1 [Example 221, (R)—N-(6-Amino-pyridin-3-ylmethyl)-3,3-dicyclohexyl-2-(2-methylamino-acetylamino)-propionamide] |
| 14.5 | CN1CCC[C@@H]1C(=O)N[C@@H](Cc1c[nH]c2ccccc12)C(=O)NCc1ccc(N)nc1 [Example 113, (R)-1-Methyl-pyrrolidine-2-carboxylic acid [(S)-1-[(6-amino-pyridin-3-ylmethyl)-carbamoyl]-2-(1H-indol-3-yl)-ethyl]-amide] |
| 3.1 | Nc1ccc(CNC(=O)[C@H](Cc2ccc(Cl)c(Cl)c2)NC(=O)[C@H](N)CCc2ccccc2)cn1 [Example 67, (R)-2-Amino-N-[(S)-1-[(6-amino-pyridin-3-ylmethyl)-carbamoyl]-2-(3,4-dichloro-phenyl)-ethyl]-4-phenyl-butyramide] |
| 2.8 | CCC(C)[C@@H](N)C(=O)N[C@@H](Cc1ccc(F)c(F)c1)C(=O)NCc1ccc(N)nc1 (stereo partly drawn) [Example 32, (R)-2-Amino-3-methyl-pentanoic acid [(S)-1-[(6-amino-pyridin-3-ylmethyl)-carbamoyl]-2-(3,4-difluoro-phenyl)-ethyl]-amide] |
| 170 | CCN(C)[C@@H](CO)C(=O)N[C@@H](CC1CCCCC1)C(=O)NCc1ccc(N)nc1 [Example 387, (S)—N-{(S)-1-[(6-Amino-pyridin-3-ylmethyl)-carbamoyl]-2-cyclohexyl-ethyl}-2-(ethyl-methyl-amino)-3-hydroxy-propionamide] |
| 93.2 | Nc1ccc(CNC(=O)[C@H](Cc2cccc(F)c2)NC(=O)c2ncc[nH]2)cn1 [Example 288, 1H-Imidazole-2-carboxylic acid [(S)-1-[(6-amino-pyridin-3-ylmethyl)-carbamoyl]-2-(3-fluoro-phenyl)-ethyl]-amide] |
| 36 | CCC(C)[C@@H](N)C(=O)N[C@@H](Cc1cccc2ccccc12)C(=O)NCc1cnc(N)c(C)c1 (stereo partly drawn) [Example 209, (R)-2-Amino-3-methyl-pentanoic acid {(S)-1-[(6-amino-5-methyl-pyridin-3-ylmethyl)-carbamoyl]-2-naphthalen-1-yl-ethyl}-amide] |
| 13.7 | CCN(C)[C@@H](Cc1ccccc1)C(=O)N[C@@H](Cc1ccc(F)c(F)c1)C(=O)NCc1ccc(N)nc1 [Example 352, (S)—N-[(S)-1-[(6-Amino-pyridin-3-ylmethyl)-carbamoyl]-2-(3,4-difluoro-phenyl)-ethyl]-2-(ethyl-methyl-amino)-3-phenyl-propionamide] |
| 3.9 | Cc1ccc(C[C@H](NC(=O)[C@H]2CCCN2C)C(=O)NCc2ccc(N)nc2)cc1 [Example 106, (R)-1-Methyl-pyrrolidine-2-carboxylic acid {(S)-1-[(6-amino-pyridin-3-ylmethyl)-carbamoyl]-2-p-tolyl-ethyl}-amide] |
| 235 | COc1ccc(C[C@H](NC(=O)c2cc3ccccc3[nH]2)C(=O)NCc2ccc(N)nc2)cc1 [Example 334, 1H-Indole-2-carboxylic acid [(S)-1-[(6-amino-pyridin-3-ylmethyl)-carbamoyl]-2-(4-methoxy-phenyl)-ethyl]-amide] |
| 1.8 | Cc1cccc(C[C@H](NC(=O)c2[nH]c(C)cc2C)C(=O)NCc2ccc(N)nc2C)c1 [Example 281, 3,5-Dimethyl-1H-pyrrole-2-carboxylic acid {(S)-1-[(6-amino-2-methyl-pyridin-3-ylmethyl)-carbamoyl]-2-m-tolyl-ethyl}-amide] |
| 33.3 | Cc1nc(N)ccc1CNC(=O)[C@@H](Cc1ccc(Cl)c(Cl)c1)NC(=O)[C@H]1CSCN1 [Example 191, (S)-Thiazolidine-4-carboxylic acid [(R)-1-[(6-amino-2-methyl-pyridin-3-ylmethyl)-carbamoyl]-2-(3,4-dichloro-phenyl)-ethyl]-amide] |
| 1.8 | CN1CCC[C@@H]1C(=O)N[C@@H](Cc1csc2ccccc12)C(=O)NCc1ccc(N)nc1 [Example 95, (R)-1-Methyl-pyrrolidine-2-carboxylic acid {(S)-1-[(6-amino-pyridin-3-ylmethyl)-carbamoyl]-2-benzo[b]thiophen-3-yl-ethyl}-amide] |
| 2.2 | CC(C)[C@@H](N)C(=O)N[C@@H](Cc1cccc2ccccc12)C(=O)NCc1ccc(N)nc1 [Example 22, (R)-2-Amino-N-{(S)-1-[(6-amino-pyridin-3-ylmethyl)-carbamoyl]-2-naphthalen-1-yl-ethyl}-3-methyl-butyramide] |
